Data taken from patent US10479780B2, “Aminopyrazole derivatives” (Chugai Seiyaku Kabushiki Kaisha, priority 2015, dated 2019).
Read-outs that look alike come from different tables or passages of the source.

Columns and labels:
Format in all cases: biochemical
human Lck enzyme = molecular target: T1, human Lck enzyme (Homo sapiens, UniProt P06239); experiment: Lck enzyme inhibitory activity (time-resolved fluorometry, biotinylated peptide phosphorylation); details: read-out: LCK_IC50
T1 construct: purchased Carna Biosciences, Inc. 08-170
Method in brief: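 Readout pairs a europium cryptate-labelled anti-phosphotyrosine antibody with XL665-streptavidin, measured by time-resolved fluorescence. IC50 derived from percent inhibition against untreated controls.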

human Yes1 enzyme = molecular target: T2, human Yes1 enzyme (Homo sapiens, UniProt P07947); experiment: Yes1 enzyme inhibitory activity (time-resolved fluorometry, biotinylated peptide phosphorylation); details: read-out: YES_IC50
T2 construct: made in house
Method in brief: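 Inhibition was expressed against a compound-free control to give IC50, using TR-FRET read-out (Eu-cryptate anti-pTyr antibody, streptavidin-XL665).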

human Src enzyme = molecular target: T3, human Src enzyme (Homo sapiens, UniProt P12931); experiment: Src enzyme inhibitory activity (time-resolved fluorometry, biotinylated peptide phosphorylation); details: read-out: SRC_IC50
T3 construct: purchased Carna Biosciences, Inc. 08-173
Method in brief: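 Compounds were tested for blocking tyrosine phosphorylation of a biotinylated peptide substrate by recombinant human Src. Phosphorylated product was quantified by time-resolved fluorometry using europium cryptate and XL665 conjugates, and IC50 was calculated against the compound-free control.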

[1] = biotinylated peptide phosphorylation

T3 sequence (P12931 whole entry): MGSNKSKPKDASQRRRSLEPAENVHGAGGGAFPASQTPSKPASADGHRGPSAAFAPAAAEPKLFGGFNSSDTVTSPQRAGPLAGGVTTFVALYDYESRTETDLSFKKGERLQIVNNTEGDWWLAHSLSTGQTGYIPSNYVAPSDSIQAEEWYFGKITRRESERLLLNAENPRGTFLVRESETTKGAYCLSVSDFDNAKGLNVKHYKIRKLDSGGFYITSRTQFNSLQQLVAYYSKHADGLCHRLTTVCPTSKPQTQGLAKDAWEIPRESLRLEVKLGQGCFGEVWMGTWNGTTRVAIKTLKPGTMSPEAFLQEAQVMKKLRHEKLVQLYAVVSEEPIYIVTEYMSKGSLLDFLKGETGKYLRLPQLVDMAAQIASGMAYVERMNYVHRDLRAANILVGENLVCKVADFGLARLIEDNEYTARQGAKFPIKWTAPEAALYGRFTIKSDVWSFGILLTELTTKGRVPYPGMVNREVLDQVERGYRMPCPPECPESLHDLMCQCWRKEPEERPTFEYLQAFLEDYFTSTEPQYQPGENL
T2 sequence (P07947 whole entry): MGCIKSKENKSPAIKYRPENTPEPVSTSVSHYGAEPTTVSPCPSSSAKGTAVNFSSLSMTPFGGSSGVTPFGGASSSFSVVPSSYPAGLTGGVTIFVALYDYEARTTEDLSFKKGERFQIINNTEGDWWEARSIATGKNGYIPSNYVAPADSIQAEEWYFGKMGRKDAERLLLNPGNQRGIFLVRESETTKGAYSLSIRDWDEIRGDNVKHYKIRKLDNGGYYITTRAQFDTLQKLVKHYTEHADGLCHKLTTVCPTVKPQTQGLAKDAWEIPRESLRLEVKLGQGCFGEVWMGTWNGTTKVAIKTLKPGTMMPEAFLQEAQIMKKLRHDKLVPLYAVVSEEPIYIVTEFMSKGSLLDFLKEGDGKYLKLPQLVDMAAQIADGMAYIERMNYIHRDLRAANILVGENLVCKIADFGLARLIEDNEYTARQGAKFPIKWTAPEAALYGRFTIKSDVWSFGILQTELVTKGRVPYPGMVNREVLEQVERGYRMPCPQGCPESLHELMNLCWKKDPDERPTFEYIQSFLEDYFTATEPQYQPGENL
T1 sequence (P06239 whole entry): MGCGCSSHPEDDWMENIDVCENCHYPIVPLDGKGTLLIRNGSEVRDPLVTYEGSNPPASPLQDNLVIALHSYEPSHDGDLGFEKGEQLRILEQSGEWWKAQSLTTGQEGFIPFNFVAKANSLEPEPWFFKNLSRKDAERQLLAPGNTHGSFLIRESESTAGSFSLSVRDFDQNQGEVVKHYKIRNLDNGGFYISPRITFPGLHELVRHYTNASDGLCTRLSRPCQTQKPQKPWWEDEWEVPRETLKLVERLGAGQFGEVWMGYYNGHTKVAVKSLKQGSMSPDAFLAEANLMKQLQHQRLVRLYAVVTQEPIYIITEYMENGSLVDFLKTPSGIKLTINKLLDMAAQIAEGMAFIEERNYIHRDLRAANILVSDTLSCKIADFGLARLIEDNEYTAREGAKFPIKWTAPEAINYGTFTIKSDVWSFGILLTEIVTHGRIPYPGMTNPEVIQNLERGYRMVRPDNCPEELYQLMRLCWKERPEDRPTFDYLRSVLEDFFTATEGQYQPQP

Row | Compound | IC50 (human Lck enzyme) [nM] | IC50 (human Yes1 enzyme) [nM] | IC50 (human Src enzyme) [nM] | IC50 (human Lck enzyme; [1]) [nM] | IC50 (human Yes1 enzyme; [1]) [nM] | IC50 (human Src enzyme; [1]) [nM]
1 | Cc1cc(Oc2c(F)cccc2F)ncc1-n1ncc(C(=O)c2cc3cc(OCC(F)F)c(NS(=O)(=O)c4cccnc4)cc3[nH]2)c1N [Example 5-1-384, N-[2-[5-amino-1-[6-(2,6-difluorophenoxy)-4-methylpyridin-3-yl]pyrazole-4-carbonyl]-5-(2,2-difluoroethoxy)-1H-indol-6-yl]pyridine-3-sulfonamide] | 44 | 2.4 | 90 | – | – | –
2 | Cc1cc(Oc2c(F)cccc2F)ncc1-n1ncc(C(=O)c2cc3cc(F)c(NS(=O)(=O)c4cc(F)cc(F)c4)cc3[nH]2)c1N [Example 5-1-563, N-[2-[5-amino-1-[6-(2,6-difluorophenoxy)-4-methylpyridin-3-yl]pyrazole-4-carbonyl]-5-fluoro-1H-indol-6-yl]-3,5-difluorobenzenesulfonamide] | – | – | – | 590 | 17 | 1200
3 | Cc1cc2cc(C(=O)c3cnn(-c4c(C)cc(Oc5ccccc5Cl)cc4F)c3N)[nH]c2cc1NS(C)(=O)=O [Example 4-2-058, N-[2-[5-amino-1-[4-(2-chlorophenoxy)-2-fluoro-6-methylphenyl]pyrazole-4-carbonyl]-5-methyl-1H-indol-6-yl]methanesulfonamide] | – | – | – | 69 | 4 | 180
4 | Cc1cc2cc(C(=O)c3cnn(-c4c(C)cc(Oc5cccc(F)c5F)cc4F)c3N)[nH]c2cc1N1CCCS1(=O)=O [Example 4-2-115, [5-amino-1-[4-(2,3-difluorophenoxy)-2-fluoro-6-methylphenyl]pyrazol-4-yl]-[6-(1,1-dioxo-1,2-thiazolidin-2-yl)-5-methyl-1H-indol-2-yl]methanone] | – | – | – | 16 | 4.1 | 63
5 | COc1cc2cc(C(=O)c3cnn(-c4cnc(Oc5ccccc5F)cc4C)c3N)[nH]c2cc1NC(=O)N1CCOCC1 [Example 4-12-002, N-[2-[5-amino-1-[6-(2-fluorophenoxy)-4-methylpyridin-3-yl]pyrazole-4-carbonyl]-5-methoxy-1H-indol-6-yl]morpholine-4-carboxamide] | – | – | – | 8 | 3.2 | 40
6 | Cc1cc(Oc2cccc(Cl)c2)nc(C)c1-n1ncc(C(=O)c2cc3cc(F)c(NS(C)(=O)=O)cc3[nH]2)c1N [Example 5-1-052, N-[2-[5-amino-1-[6-(3-chlorophenoxy)-2,4-dimethylpyridin-3-yl]pyrazole-4-carbonyl]-5-fluoro-1H-indol-6-yl]methanesulfonamide] | 250 | 120 | 810 | – | – | –
7 | Cc1cc(Oc2ccccc2F)ncc1-n1ncc(C(=O)c2cc3cc(OCC(F)F)c(NS(=O)(=O)c4cccnc4)cc3[nH]2)c1N [Example 5-1-425, N-[2-[5-amino-1-[6-(2-fluorophenoxy)-4-methylpyridin-3-yl]pyrazole-4-carbonyl]-5-(2,2-difluoroethoxy)-1H-indol-6-yl]pyridine-3-sulfonamide] | – | – | – | 39 | 1.5 | 95
8 | Cc1cc2cc(C(=O)c3cnn(-c4cnc(Oc5ccccc5F)cc4C)c3N)[nH]c2cc1NS(=O)(=O)c1ccc2ccccc2c1 [Example 5-1-466, N-[2-[5-amino-1-[6-(2-fluorophenoxy)-4-methylpyridin-3-yl]pyrazole-4-carbonyl]-5-methyl-1H-indol-6-yl]naphthalene-2-sulfonamide] | – | – | – | 520 | 28 | 4400
9 | Cc1ccccc1Oc1cc(C)c(-n2ncc(C(=O)c3cc4cc(F)c(NS(C)(=O)=O)cc4[nH]3)c2N)cn1 [Example 4-2-036, N-[2-[5-amino-1-[4-methyl-6-(2-methylphenoxy)pyridin-3-yl]pyrazole-4-carbonyl]-5-fluoro-1H-indol-6-yl]methanesulfonamide] | – | – | – | 21 | 1.5 | 60
10 | CCOc1cc2cc(C(=O)c3cnn(-c4ccc(Oc5ccccc5F)cc4C)c3N)[nH]c2cc1C1CCN(S(C)(=O)=O)CC1 [Example 5-1-073, [5-amino-1-[4-(2-fluorophenoxy)-2-methylphenyl]pyrazol-4-yl]-[5-ethoxy-6-(1-methylsulfonylpiperidin-4-yl)-1H-indol-2-yl] methanone] | 32 | 9.7 | 42 | – | – | –
11 | Cc1cc2cc(C(=O)c3cnn(-c4ccc(Oc5ccccc5F)cc4C)c3N)[nH]c2cc1N1CCOCC1 [Example 4-2-122, [5-amino-1-[4-(2-fluorophenoxy)-2-methylphenyl]pyrazol-4-yl]-(5-methyl-6-morpholin-4-yl-1H-indol-2-yl)methanone] | – | – | – | 7.3 | 3.6 | 34
12 | Cc1cc(Oc2ccccc2F)ccc1-n1ncc(C(=O)c2cc3cc(OC(F)F)c(N4CCOCC4)cc3[nH]2)c1N [Example 4-25-024, [5-amino-1-[4-(2-fluorophenoxy)-2-methylphenyl]pyrazol-4-yl]-[5-(difluoromethoxy)-6-morpholin-4-yl-1H-indol-2-yl]methanone] | – | – | – | 29 | 0.69 | 55
13 | Cc1cc(Oc2ccccc2F)cc(F)c1-n1ncc(C(=O)c2cc3cc(OCC(F)F)c(N4CCCS4(=O)=O)cc3[nH]2)c1N [Example 4-25-010, [5-amino-1-[2-fluoro-4-(2-fluorophenoxy)-6-methylphenyl]pyrazol-4-yl]-[5-(2,2-difluoroethoxy)-6-(1,1-dioxo-1,2-thiazolidin-2-yl)-1H-indol-2-yl]methanone] | – | – | – | 7.4 | 1.7 | 16
14 | Cc1cc(Oc2cccc(F)c2F)ccc1-n1ncc(C(=O)c2cc3cc(F)c(NS(=O)(=O)C4CC4)cc3[nH]2)c1N [Example 4-2-041, N-[2-[5-amino-1-[4-(2,3-difluorophenoxy)-2-methylphenyl]pyrazole-4-carbonyl]-5-fluoro-1H-indol-6-yl]cyclopropanesulfonamide] | – | – | – | 38 | 0.79 | 84
15 | Cc1cc(Oc2ccccc2F)ccc1-n1ncc(C(=O)c2cc3cc(OC(F)F)c(NC4CCN(S(C)(=O)=O)CC4)cc3[nH]2)c1N [Example 4-23-010, [5-amino-1-[4-(2-fluorophenoxy)-2-methylphenyl]pyrazol-4-yl]-[5-(difluoromethoxy)-6-[(1-methylsulfonylpiperidin-4-yl)amino]-1H-indol-2-yl]methanone] | – | – | – | 25 | 7.2 | 34
16 | CC(=O)N1CCC(c2cc3[nH]c(C(=O)c4cnn(-c5cnc(Oc6ccccc6F)cc5C)c4N)cc3cc2OCC(F)F)CC1 [Example 4-17-020, 1-[4-[2-[5-amino-1-[6-(2-fluorophenoxy)-4-methylpyridin-3-yl]pyrazole-4-carbonyl]-5-(2,2-difluoroethoxy)-1H-indol-6-yl]piperidin-1-yl]ethanone] | – | – | – | 3.3 | 0.81 | 8.3
17 | Cc1cc(Oc2ccccc2F)ncc1-n1ncc(C(=O)c2cc3cc(OCC(F)F)c(NS(=O)(=O)c4cccc(C#N)c4)cc3[nH]2)c1N [Example 5-1-422, N-[2-[5-amino-1-[6-(2-fluoropheooxy)-4-methylpyridin-3-yl]pyrazole-4-carbonyl]-5-(2,2-difluoroethoxy)-1H-indol-6-yl]-3-cyanobenzenesulfonamide] | – | – | – | 91 | 1.7 | 250
18 | Cc1cc(Oc2c(F)cccc2F)ncc1-n1ncc(C(=O)c2cc3cc(F)c(N4CCCC4=O)cc3[nH]2)c1N [Example 5-1-098, 1-[2-[5-amino-1-[6-(2,6-difluorophenoxy)-4-methylpyridin-3-yl]pyrazole-4-carbonyl]-5-fluoro-1H-indol-6-yl]pyrrolidin-2-one] | 1.4 | 1.9 | 15 | – | – | –
19 | Cc1cc(Oc2ccccc2F)ccc1-n1ncc(C(=O)c2cc3cc(C4CC4)c(NS(=O)(=O)C4CCOCC4)cc3[nH]2)c1N [Example 5-1-397, N-[2-[5-amino-1-[4-(2-fluorophenoxy)-2-methylphenyl]pyrazole-4-carbonyl]-5-cyclopropyl-1H-indol-6-yl]oxane-4-sulfonamide] | 31 | 1.8 | 90 | – | – | –
20 | Cc1cc(Oc2ccccc2F)ccc1-n1ncc(C(=O)c2cc3cc(F)c(NS(=O)(=O)c4cc(F)cc(F)c4)cc3[nH]2)c1N [Example 5-1-562, N-[2-[5-amino-1-[4-(2-fluorophenoxy)-2-methylphenyl]pyrazole-4-carbonyl]-5-fluoro-1H-indol-6-yl]-3,5-difluorobenzenesulfonamide] | – | – | – | 180 | 5.3 | 830
21 | Nc1c(C(=O)c2cc3cc(F)c(NS(=O)(=O)CCCF)cc3[nH]2)cnn1-c1ccc(Oc2ncccc2F)cc1F [Example 5-1-035, N-[2-[5-amino-1-[2-fluoro-4-(3-fluoropyridin-2-yl)oxyphenyl]pyrazole-4-carbonyl]-5-fluoro-1H-indol-6-yl]-3-fluoropropane-1-sulfonamide] | 35 | 0.68 | 85 | – | – | –
22 | CC(C)N1CCC(c2cc3cc(C(=O)c4cnn(-c5ccc(Oc6cccc(Cl)c6)cc5F)c4N)[nH]c3cc2F)CC1 [Example 5-1-003, [5-amino-1-[4-(3-chlorophenoxy)-2-fluorophenyl]pyrazol-4-yl]-[6-fluoro-5-(1-propan-2-ylpiperidin-4-yl)-1H-indol-2-yl]methanone] | 4.7 | 2 | 26 | – | – | –
